Results published in patent publication US7718764B2, “Biologically active peptide [sequence] derivatives” (CMS Peptides Patent Holding Company Limited, priority 2004, dated 2010).

Assays:
Masugi nephritis rabbits [1] = experiment: Masugi nephritis in rabbits: urine protein; format: in vivo; conditions: for proteinuria Week 0: saline treatment 11.72 ± 3.18; for proteinuria Week 1: saline treatment 122 ± 91; for proteinuria Week 2: saline treatment 160 ± 138; for proteinuria Week 3: saline treatment 145 ± 33; for proteinuria Week 4: saline treatment 157 ± 71
Experimental: (§1) Twenty-two healthy rabbits were randomized into 5 groups: peptide (107.3 μg/kg/day and 58.5 μg/kg/day, 4 rabbits per group), dexamethasone (0.1 mg/kg/day, 4 rabbits), saline treatment (1 ml/day, 7 rabbits), and normal healthy (3 rabbits). Before the establishment of a disease state in the rabbits, measurements of serum BUN, creatinine, and urine protein over 24 hours were taken for each rabbit. If there was no abnormality in these measurements, the Masugi nephritis model was established in experimental rabbits by intravenous injection of sheep anti-rabbit renal cortex antiserum via the auricular vein, 0.5 ml per injection, one injection every 30 minutes, for a total of 4 injections per rabbit. The normal healthy (control) rabbit group was injected with saline in the same manner. Intravenous administration of the test substances via the auricular vein was started on the day after the injection of the antiserum, once per day, 1 ml per injection, for 30 consecutive days.
Urine was collected from each rabbit over a 24 hour period once per week and the protein content determined by the sulfosalicylic acid method.
(§2) Statistical significance was determined by the t-test of the SPSS software.

Heymann nephritis rats = experiment: Heymann nephritis in rats: 24 hr urine protein; format: in vivo, Wistar rats
Experimental: 20 healthy Wistar rats were randomized into two groups: peptide (200 μg/kg/day) and saline treatment (2 ml/day). Two ml of antigen were intraperitoneally injected to each rat, once every two weeks, for a total of 5 rounds of injection. Test substance administration by intraperitoneal injection was started on the day after the third immunization, once per day until the end of the experiment.
Quantification of uriner protein began at the third week of model establishment. A urine sample was collected from each rat over a 24 hour period once every […] the urine protein content quantified by the sulfosalicylic acid method.
Sample values were compared by t-test using SPSS software.

mice T-lymphocyte = experiment: Mice T-lymphocyte transformation in vivo (i.p. dosing 20 days, spleen cells + ConA, MTT, stimulation index); set-up: species or system BALB/c mice
Experimental: Animals were randomized into two peptide groups (200 μg/kg/day and 50 μg/kg/day), Cyclosporine A group (10 mg/kg/day), and saline group (0.5 ml/day). Each group contained 10 mice, in which half were female and half were male. All test substances were dissolved in 0.5 ml saline and administered intraperitoneally once per day for 20 days. T-lymphocyte transformation and NK cell activity were examined on the day immediately following the last injection. The day after the last test substance administration, the mice were sacrificed by cervical dislocation. The spleens were isolated aseptically and manually dispersed in 10% FBS RPMI-1640 solution using an injection needle. The dispersed cell suspension was further sieved through a 100 gauge 150 μm diameter stainless steel sieve and adjusted to 4×10^6/ml. The cell suspensions were inoculated onto a 96 wells cell culture plate, 100 μl/well with the following design. Assay wells: 100 μl cell suspension+100 μl ConA Control wells: 100 μl cell suspension+100 μl RPMI-1640 Four assay and four control wells were set up for each animal. The plates were incubated at 37° C., 5% CO2 for 68 hours. MTT was then added and the plates read at OD 570 nm referenced at 630 nm with ELISA reader. Stimulation Index SI (%)=(assay well OD/control well OD)×100%.

mice NK cell = experiment: Mice NK cell activity in vivo (i.p. dosing 20 days, spleen effector cells vs YAC-1 target cells, MTT); set-up: species or system BALB/c mice; conditions: for NK cell activity (%): Table 8, saline 76.0 ± 4.3
Experimental: Animals were randomized into two peptide groups (200 μg/kg/day and 50 μg/kg/day), Cyclosporine A group (10 mg/kg/day), and saline group (0.5 ml/day). Each group contained 10 mice, in which half were female and half were male. All test substances were dissolved in 0.5 ml saline and administered intraperitoneally once per day for 20 days. T-lymphocyte transformation and NK cell activity were examined on the day immediately following the last injection. YAC-1 target cells were brought to log phase and adjusted to a density of 1×10^5/ml. Mice spleen cells prepared in section 2.2.2 above were adjusted to a density of 4×10^6/ml and used as effector cells. The cell suspensions were inoculated onto 96 wells cell culture plates as follows: Effector cell wells: 100 μl spleen cell suspension+100 μl RPMI-1640 Assay wells: 100 μl spleen cell suspension+100 μl YAC-1 cell suspension Target cell wells: 100 μl YAC-1 cell suspension+100 μl RPMI-1640 Three assay wells and three effector cell wells were set up for each animal, and 12 target cell wells were set up per cell culture plate. The plates were incubated at 37° C., 5% CO2 for 4 hours, then MTT was added and the plates were read at OD 570 nm referenced at 630 nm with ELISA reader. NK cell activity (%)=1−[(assay wells OD−effector cell wells OD)/target cell wells OD]×100%

mice antibody formation = experiment: Mice antibody formation in vivo (SRBC immunisation, serum haemolysis HC50); set-up: species or system BALB/c mice
Experimental: The mice were randomized into three groups: peptide (200 μg/kg/day), Cyclosporine A (10 mg/kg/day), and saline (0.5 ml). Each group contained 12 mice, 6 female and 6 male. The test substances were dissolved in 0.5 ml saline and applied intraperitoneally once per day for 20 consecutive days.
Sheep red blood cells (SRBC) were resuspended with saline to 2% (v/v) and 0.2 ml of the resuspended cell solution was applied intraperitoneally to each mouse on day 16th of the test substance administration. On the day after the last test substance administration, blood was collected from the inner canthus and left at room temperature for one hour for serum exudation. After centrifugation at 200 g for 10 minutes, the serum was diluted by 200 times with normal saline.
For the preparation of the complement working solution, 10 volumes of fresh Cavy serum was added into one volume of centrifuge-packed SRBC. […]
For assay of the mice antibody titer, 0.2 ml of 1% SRBC suspension was added to 1 ml diluted ice-cold mouse serum from each mouse. […] To 1 ml of this supernatant, 3 ml Drabkin solution was added and left at room temperature for 10 minutes, and then the OD540nm was measured. The reference lysis-50 reading at OD540nm was determined by following the exact procedure as the sample, except replacing half of the SRBC with saline and without the centrifugation removal of the unlysed SRBC. […]

Masugi nephritis rabbits [2] = experiment: Masugi nephritis in rabbits: clearance of sheep anti-rabbit renal cortex IgG antibody (glomerular immunofluorescence); format: in vivo; conditions: saline treatment 8.7 ± 0.9
Experimental: as §1, with “Before” for “Twenty-two healthy rabbits were randomized into 5 groups: peptide (107.3 μg/kg/day and 58.5 μg/kg/day, 4 rabbits per group), dexamethasone (0.1 mg/kg/day, 4 rabbits), saline treatment (1 ml/day, 7 rabbits), and normal healthy (3 rabbits). Before”
For observation of the effects of peptides on the clearance of sheep anti-rabbit renal cortex IgG antibody from Masugi nephritis rabbits, on the day after the last test substance administration, the rabbits were sacrificed by suffocation and the right kidney was extirpated, freeze-edged and then immunofluorescently stained for the presence of sheep IgG. The fluorescence-positive area of each glomerulus was counted. Thirty glomeruli per rabbit were examined and the average positive area per glomerulus was calculated.
as §2

[3] = at suitable dosage, vs saline control P<0.05

Substance: PLNPK [CMS-010.26]
- proteinuria Week 0 (Masugi nephritis rabbits [1]; 58.5 μg/kg/day i.v.): 9.53 ± 4.64 mg/dL
- proteinuria Week 1 (Masugi nephritis rabbits [1]; 58.5 μg/kg/day i.v.): 77 ± 62 mg/dL
- proteinuria Week 2 (Masugi nephritis rabbits [1]; 58.5 μg/kg/day i.v.): 150 ± 123 mg/dL
- proteinuria Week 3 (Masugi nephritis rabbits [1]; 58.5 μg/kg/day i.v.): 20 ± 12 mg/dL
- proteinuria Week 4 (Masugi nephritis rabbits [1]; 58.5 μg/kg/day i.v.): 36 ± 16 mg/dL
- proteinuria Week 0 (Masugi nephritis rabbits [1]; 107.3 μg/kg/day i.v.): 9.84 ± 4.29 mg/dL
- proteinuria Week 1 (Masugi nephritis rabbits [1]; 107.3 μg/kg/day i.v.): 187 ± 184 mg/dL
- proteinuria Week 2 (Masugi nephritis rabbits [1]; 107.3 μg/kg/day i.v.): 114 ± 145 mg/dL
- proteinuria Week 3 (Masugi nephritis rabbits [1]; 107.3 μg/kg/day i.v.): 26 ± 24 mg/dL
- proteinuria Week 4 (Masugi nephritis rabbits [1]; 107.3 μg/kg/day i.v.): 28 ± 32 mg/dL
- Effect on severity of proteinuria in Masugi nephritis rabbits (Masugi nephritis rabbits [1]; vs saline treatment control P<0.05): decrease
- 24 hr. urine protein concentration Week 3 (Heymann nephritis rats; 200 μg/kg/day i.p., Week 3, saline treatment 4.1 ± 1.3): 6.2 ± 2.3 mg/dL
- 24 hr. urine protein concentration Week 5 (Heymann nephritis rats; 200 μg/kg/day i.p., Week 5, saline treatment 3.1 ± 0.8): 3.1 ± 1.4 mg/dL
- 24 hr. urine protein concentration Week 7 (Heymann nephritis rats; 200 μg/kg/day i.p., Week 7, saline treatment 10.9 ± 2.8): 3.9 ± 1.6 mg/dL
- 24 hr. urine protein concentration Week 9 (Heymann nephritis rats; 200 μg/kg/day i.p., Week 9, saline treatment 12.6 ± 1.2): 3.8 ± 2.2 mg/dL
- Effect on severity of proteinuria in Heymann nephritis rats (Heymann nephritis rats; at suitable dosage, vs saline treatment P<0.05): decrease
- SI (mice T-lymphocyte; Table 4, 200 μg/kg/day i.p. 20 days, saline 3.63 ± 0.69): 2.19 ± 0.59
- Effect on mice T-lymphocyte transformation in vivo (mice T-lymphocyte; at suitable dosages, vs saline control P<0.05): suppress
- NK cell activity (%) (mice NK cell; 50 μg/kg/day i.p. 20 days): 68.5 ± 7.2 %
- NK cell activity (%) (mice NK cell; 200 μg/kg/day i.p. 20 days): 67.7 ± 5.3 %
- Effect on mice NK cell activity in vivo (suppression) (mice NK cell; [3]): suppress
- HC50 (mice antibody formation; 200 μg/kg/day i.p. 20 days, SRBC day 16, saline 167.6 ± 21.5): 141.3 ± 29.3
- Effect on mice antibody formation in vivo (mice antibody formation; [3]): suppress
- Positive area count/glomerulus (Masugi nephritis rabbits [2]; 58.5 μg/kg/day i.v. 30 days): 6.3 ± 1.4
- Positive area count/glomerulus (Masugi nephritis rabbits [2]; 107.3 μg/kg/day i.v. 30 days): 5.6 ± 1.2
